Data on 2 compounds can be found in publication PMC7096405, “Field evaluation of sex pheromones and binding specificity of pheromone binding protein 4 in Tryporyza intacta (Lepidoptera: Crambidae)” (Scientific Reports, 2020).

The target of the test is TintPBP4 (pheromone binding protein 4). In words: fluorescence competitive binding assay, displacement of 1-NPN. More on the design: species or system Tryporyza intacta.

Consider `CCCC/C=C/CCCCCCCCCC=O` [compound 1, E11-16: Ald], for which the Ki (commonly the dissociation constant of the complex between target and ligand, obtained from inhibition or displacement) is 2970 nM.

In turn, `CCCC/C=C\CCCCCCCCCC=O` [compound 2, Z11-16: Ald] gave a Ki of 2510 nM.
